Values quoted from earlier work as cited in US20100119622A1, “3H-BENZOOXAZOL-2-ONE MODULATORS OF D2 RECEPTOR AND/OR 5-HT1A RECEPTOR” (AUSPEX PHARMACEUTICALS, INC., priority 2008, published 2010).

Details: healthy subjects

elimination half-life: 14 h
Structure (SMILES): O=c1[nH]c2cccc(N3CCN(Cc4cccc(-c5ccccc5)c4)CC3)c2o1 [Bifeprunox, 7-[4-[(3-Phenylphenyl)methyl]piperazin-1-yl]-3H-benzooxazol-2-one]
